The structures appear in SMILES notation.

The nature of the data set: Human HepG2 cell viability assay in 384 well format. Details: dose 125 nL, time 70.5 hour; concentration not given beside the values. The data set is classed as toxicity, cell-based. Particulars: HepG2 cells, read-out: Inhibition.
Consider `CN1CC(=O)N(c2cccc(F)c2)CC12CCN(CCO)C2` (centres undefined), for which the cytotoxicity at 70.5 h is -5.44%.

Regarding `CCC(C)NC(=O)Cn1ccc2c(C)nn(CC)c2c1=O` (centres undefined), the cytotoxicity at 70.5 h came out at 30.5%.

For the compound `COc1ccc(CC(=O)NC(C)c2nc3cccnc3n2C(C)C)cc1` (centres undefined), the cytotoxicity at 70.5 h stood at 2.45%.

As to `c1cc(NCc2ccsc2)cc(-c2nnc[nH]2)c1`, the cytotoxicity at 70.5 h worked out at 1.3%.

With `CCc1nc2ccccc2c(=O)n1CC1(O)CCN(C(=O)C(C)C)CC1`, the cytotoxicity at 70.5 h was -8.49%.

Turning to `CC(C)[C@H]1CN(S(=O)(=O)c2cccnc2)C[C@@H]1N`, the cytotoxicity at 70.5 h came out at 0.829%.

Consider `CCn1cc(-c2cc(C(F)(F)F)nn2CCC#N)cn1`, for which the cytotoxicity at 70.5 h is -9.49%.

`NS(=O)(=O)c1cccnc1NCc1ccco1`: the cytotoxicity at 70.5 h was -4.56%.

As for `CNC(=O)C1CCC2(CCN(c3nncs3)CC2)CO1` (centres undefined), the cytotoxicity at 70.5 h is -2.99%.

Regarding `NC(=O)COc1cccc(Cn2cc(Br)cn2)c1`, the cytotoxicity at 70.5 h was -1.2%.

With `O=S1(=O)C[C@@H]2[C@H](C1)N(Cc1cc(Cl)cc(Cl)c1)CCN2CC1CC1`, the cytotoxicity at 70.5 h is -17.1%.

In the case of `Cc1ccc(CCC(=O)N2CCOCC2c2ncon2)c(C)c1` (centres undefined), the cytotoxicity at 70.5 h was 13.3%.

As to `Fc1ccc(CN2CCC(c3nccnc3-n3ccnc3)CC2)cc1`, the cytotoxicity at 70.5 h was found to be 2.75%.

For the compound `CC(=O)N1CCC1c1cc(N2CCNC(=O)C2)nc(C)n1` (centres undefined), the cytotoxicity at 70.5 h was -5.23%.

`CCOCc1cnc2n1CCN(C(=O)c1cccc3c1OCCO3)C2C` (centres undefined): the cytotoxicity at 70.5 h is -5.93%.

Turning to `CCC(CC)C(=O)N1CCCc2c(cnn2C)C1`, the cytotoxicity at 70.5 h was -1.89%.

Turning to `O=C(NCCn1ccnc1)N1CCN(Cc2ccco2)CC1`, the cytotoxicity at 70.5 h was -3.81%.

On to `Cc1nc[nH]c1CN1C[C@@H]2CC[C@H](C1)N(C(=O)CCc1cccnc1)C2`, for which the cytotoxicity at 70.5 h was -11.7%.

In the case of `Cc1nn(C)c(C)c1C1CCCN1C(=O)c1ccc(CN(C)C)cc1` (centres undefined), the cytotoxicity at 70.5 h stood at 15.1%.

As for `CCn1ccc(-c2cc(NCCCOc3cccc(C)c3)nc(C)n2)n1`, the cytotoxicity at 70.5 h is -6.25%.

Consider `O=S(=O)(CCCNC1CCc2ncnn2C1)c1ccccc1` (centres undefined), for which the cytotoxicity at 70.5 h worked out at 23.5%.

For the compound `Cc1ncsc1CCN(C)C(=O)CN1CC2(CCNCC2)OC1=O`, the cytotoxicity at 70.5 h is 17.2%.

Take `CCOC(=O)c1coc(N2CCN(Cc3ccc(C)cc3)C(=O)C2)n1`: the cytotoxicity at 70.5 h amounted to 0.779%.

Regarding `CN1CCCC1c1ccc(N2CCOCC2)cn1` (centres undefined), the cytotoxicity at 70.5 h is -16.8%.

In the case of `CN(C)CCN1CCOCC2(C1)CN(Cc1ccco1)CCO2` (centres undefined), the cytotoxicity at 70.5 h was -17.1%.

On to `CC(Cn1cccn1)NC(=O)C1=Cc2ccccc2OC1` (centres undefined), for which the cytotoxicity at 70.5 h is -4.64%.

Turning to `CC(C1CCN(Cc2cnn(C)c2C2CC2)CC1)N1CCCC1` (centres undefined), the cytotoxicity at 70.5 h was -7.31%.

Turning to `CN(C)CCn1c(=O)oc2ccc(NC(=O)CC(C)(C)C)cc21`, the cytotoxicity at 70.5 h is -6.79%.

Take `CC(=O)NCC(=O)N1Cc2cc(-c3cc[nH]n3)ccc2C1c1cnco1` (centres undefined): the cytotoxicity at 70.5 h was -2.28%.

Take `CC(C)c1nc(CCNC(=O)NCc2ccnc(N(C)C)c2)cs1`: the cytotoxicity at 70.5 h is -10.2%.

Consider `Cc1nn(C)c(N2CCOCC2)c1CNCc1nccs1`, for which the cytotoxicity at 70.5 h was -6.17%.

Regarding `CCNC(=O)N1CCC(c2ccccc2)C1` (centres undefined), the cytotoxicity at 70.5 h was determined as 2.66%.

As to `O=C(c1ccco1)N1CC[C@@H]2O[C@H](COCCN3CCCC3)CC[C@@H]21`, the cytotoxicity at 70.5 h amounted to 10.5%.

`Cc1n[nH]c(C2CN(C(=O)c3ccc4c(c3)COC4)CCO2)n1` (centres undefined): the cytotoxicity at 70.5 h was -1.57%.

Regarding `COc1ccc(C2(NC(=O)CCn3cncn3)CCCCC2)cc1`, the cytotoxicity at 70.5 h was -6.29%.

Take `O=S(=O)(c1cncc(F)c1)N1CCSC2(CCCCC2)C1`: the cytotoxicity at 70.5 h was -10.2%.

Take `CNc1nc(C(=O)NCC2CCOc3ccccc3C2)cs1` (centres undefined): the cytotoxicity at 70.5 h was determined as 15.5%.

In the case of `CCCc1n[nH]c(C2CN(CCc3cccs3)CCO2)n1` (centres undefined), the cytotoxicity at 70.5 h was -3.81%.

On to `COc1cc(/C=C/c2ncc(C(=O)O)s2)cc(Cl)c1OC`, for which the cytotoxicity at 70.5 h was found to be 18.2%.

For the compound `COc1ccc(CNC(=O)NCc2ccc(C(N)=O)cc2)cn1`, the cytotoxicity at 70.5 h was -2.22%.

As to `CCc1cc(C(=O)N2CCC(O)(Cn3ccc4ccncc43)CC2)no1`, the cytotoxicity at 70.5 h is -5.47%.

`Cn1cccc1C(=O)N1CC[C@H]2C[C@@H](c3ccncn3)O[C@@H]2C1`: the cytotoxicity at 70.5 h is -9.87%.

Consider `CC(=O)NC1CCN(C(=O)Nc2cccc(C(F)(F)F)c2)CC1`, for which the cytotoxicity at 70.5 h was determined as 20.6%.

Regarding `CC(C)n1ncc2c1NC(=O)CC21C(=O)Nc2c(Cl)cccc21` (centres undefined), the cytotoxicity at 70.5 h was -5.46%.

`Cc1cccc(C(=O)N2CCC(C(=O)c3cc(F)ccc3F)CC2)n1`: the cytotoxicity at 70.5 h was -7.52%.

In the case of `COc1ccc(OC)c(-n2nnnc2SCC2CCCN(C)C2)c1` (centres undefined), the cytotoxicity at 70.5 h was -3.08%.

In the case of `Cc1cccc(N2CCOCC3(C2)CN(c2cnn(C)c2)C(=O)CO3)n1` (centres undefined), the cytotoxicity at 70.5 h is 16.9%.

For `Cn1ccnc1-c1noc(NCc2ccccc2)n1`, the cytotoxicity at 70.5 h was -7.49%.

`Cc1csc(N2CCN(CC(=O)Nc3c(C)n[nH]c3C)CC2C)n1` (centres undefined): the cytotoxicity at 70.5 h was 7.7%.

On to `Cc1c(C(=O)NC2CCCOc3cc(Cl)ccc32)cnn1C` (centres undefined), for which the cytotoxicity at 70.5 h is -15.2%.

Consider `CC(=O)Nc1ccsc1C(=O)Nc1cnc2n1CCCC2`, for which the cytotoxicity at 70.5 h was -4.21%.

Take `CNc1cc(C)nc(C2COCCN2CCc2ccccc2)n1` (centres undefined): the cytotoxicity at 70.5 h was -1.48%.

Take `CC(C)Cc1cc(CN2C[C@H]3CC[C@@H]2CN(Cc2cscn2)C3)n[nH]1`: the cytotoxicity at 70.5 h is 12.5%.

For `COC(C)C(=O)NS(=O)(=O)c1cccc2cc(C)cnc12` (centres undefined), the cytotoxicity at 70.5 h was -2.88%.

`Cc1nn(C)cc1-c1ccnc(N(C)Cc2ccc(F)cc2)n1`: the cytotoxicity at 70.5 h was -4.85%.

Take `O=C1Nc2ccccc2C12CCCN(Cc1ccc3c(c1)OCCO3)C2` (centres undefined): the cytotoxicity at 70.5 h is -11.8%.

Take `O=C(NCCCn1nc2ccccn2c1=O)NCCC1CCC1`: the cytotoxicity at 70.5 h is -3.21%.

In the case of `Cn1ccnc1CC1CCCN(C(=O)NCCOc2cccnc2)C1` (centres undefined), the cytotoxicity at 70.5 h was found to be 1.38%.

As for `CS(=O)(=O)NCC1CCCN(C(=O)Nc2cccnc2N2CCCC2)C1` (centres undefined), the cytotoxicity at 70.5 h is -0.725%.

On to `Cn1cc(CN2CCC3(CC2)CC(=O)Nc2ccccc23)cn1`, for which the cytotoxicity at 70.5 h was -1.78%.

Take `CC(=O)N1CCC(c2ncc3c(n2)CCN(C(=O)c2ccccc2)C3)C1` (centres undefined): the cytotoxicity at 70.5 h is -2.46%.

Turning to `CC1(c2ccccc2)CCCN(Cc2nnc(-c3cccnc3)o2)C1` (centres undefined), the cytotoxicity at 70.5 h was -3.27%.

In the case of `Cc1ccc(NS(=O)(=O)c2cc(C(=O)O)oc2C)c(Br)c1`, the cytotoxicity at 70.5 h is -6.35%.

Regarding `Cn1nnc2c1CCN(C(=O)CC1CC1)C2COCCN1CCCC1` (centres undefined), the cytotoxicity at 70.5 h worked out at 8.05%.

With `Cn1nc2c(c1NC(=O)c1ccc(C3CCCN3C3CCC3)s1)CCC2` (centres undefined), the cytotoxicity at 70.5 h is -6.85%.

Take `Cc1cn2nc(N3CCCC3Cn3nc(C)nc3C)sc2n1` (centres undefined): the cytotoxicity at 70.5 h is -5.44%.

With `CCn1ccnc1CN1CCN(Cc2cc(C#N)ccc2F)CC1`, the cytotoxicity at 70.5 h was -3.57%.

As for `CN(C)C[C@H]1OC[C@@H]2CCN(S(=O)(=O)c3ccc(F)cc3)C[C@@H]21`, the cytotoxicity at 70.5 h was -7.32%.

`CCN(CC1CCOC1)C(=O)c1ccccc1NS(=O)(=O)CC` (centres undefined): the cytotoxicity at 70.5 h was -3.45%.

For `Cc1c(CN2C[C@@H](O)[C@H](Oc3cccc(F)c3)C2)cnn1C`, the cytotoxicity at 70.5 h is -10.7%.

With `Cn1cccc1C(=O)N1C[C@H](OCC2CCOCC2)[C@H]2COC[C@H]21`, the cytotoxicity at 70.5 h was -10.8%.

As to `COCCNc1nc2c(c(NCc3cnc(C)c(C)c3)n1)CCNCC2`, the cytotoxicity at 70.5 h was -3.2%.

As for `CCc1ccc2nc(C)cc(C(=O)NC[C@@H]3CCNC[C@H]3O)c2c1`, the cytotoxicity at 70.5 h worked out at 14.5%.

As for `CC(=O)NCCNC(=O)c1ccc(C)c(-n2cccc2)c1`, the cytotoxicity at 70.5 h was -10.2%.

Regarding `Cc1nn(C)c(Cl)c1C1CCCN1CC(=O)N1CCCCC1` (centres undefined), the cytotoxicity at 70.5 h came out at 26.9%.

On to `O=C(NS(=O)(=O)c1ccccc1C(F)(F)F)c1cccc2c1OCCO2`, for which the cytotoxicity at 70.5 h is -75.1%.

On to `NC(=O)c1ccc(N2CCCCC2)c(NC(=O)c2cc(Br)ccc2Cl)c1`, for which the cytotoxicity at 70.5 h is 16.1%.

For `Cc1cc2n(n1)CC(CNCCc1cnn(C)c1)CN2` (centres undefined), the cytotoxicity at 70.5 h was 34.9%.

As to `CC(O)c1cnn(-c2ccccc2)c1` (centres undefined), the cytotoxicity at 70.5 h is 45.1%.

For the compound `Cc1n[nH]c(C)c1NC(=O)CN(CC(O)c1ccc(F)cc1)C1CC1` (centres undefined), the cytotoxicity at 70.5 h was -3.36%.

As to `CCc1nc(Cn2nc(C3CCNCC3)n(-c3ccccc3)c2=O)cs1`, the cytotoxicity at 70.5 h is -5.68%.

Turning to `COc1cccc(CN2CC(O)CN(C(=O)C(C)(C)C)CC2=O)c1OC` (centres undefined), the cytotoxicity at 70.5 h came out at 50.4%.

In the case of `COc1ccc(Cc2c(O)nc(SC)n(-c3ccccc3)c2=O)cc1`, the cytotoxicity at 70.5 h stood at 12.6%.

Consider `COc1ncccc1CN1CC[C@H]2O[C@H](c3nnc(C)o3)CC[C@H]21`, for which the cytotoxicity at 70.5 h was -11.5%.

Turning to `O=C1N(c2cccc(Cl)c2)Cc2nc(=O)[nH]n21`, the cytotoxicity at 70.5 h is -3.18%.

Turning to `CN(C)[C@@H]1CN(C(=O)c2cc3cccc(F)c3[nH]2)C[C@H]1O`, the cytotoxicity at 70.5 h is -2.67%.

As to `CC(C)C[C@H](NC(=O)N1CCC(Cc2ccccc2)CC1)C(=O)O`, the cytotoxicity at 70.5 h was -5.66%.

For `O=C(NCc1ccnc(OCC(F)(F)F)c1)NCC1COCCO1` (centres undefined), the cytotoxicity at 70.5 h was -6.7%.

Consider `O=C(NCCNc1ncccn1)N1CCCC1`, for which the cytotoxicity at 70.5 h was -0.644%.

As for `O=C(Nc1nncs1)c1ccc(O)nc1`, the cytotoxicity at 70.5 h turned out to be 0.228%.

For `O=C1COc2cc(C(=O)N3CCCC(n4ccnc4)C3)ccc2N1` (centres undefined), the cytotoxicity at 70.5 h is -1.66%.

As for `CCc1nnsc1C(=O)NCCn1nc2ccccn2c1=O`, the cytotoxicity at 70.5 h is 31.6%.

Consider `CCc1nc(C(=O)N2CCOCC2)nn1-c1ccccc1Cl`, for which the cytotoxicity at 70.5 h was -3.34%.

Take `NC(=O)C1(CCCc2cccnc2)CCCN(c2ncccn2)C1` (centres undefined): the cytotoxicity at 70.5 h is -13.9%.

In the case of `Nc1ncnc2nc(C3CCN(C(=O)Cc4ccc(F)cc4)C3)ccc12` (centres undefined), the cytotoxicity at 70.5 h is -9.46%.

Consider `CC(C)(C)NC(=O)Cn1cc(C(N)=O)c(-c2ccccc2)n1`, for which the cytotoxicity at 70.5 h is -3.41%.

`O=C(CN1CCOC(CNc2cccnn2)C1)NCc1ccccn1` (centres undefined): the cytotoxicity at 70.5 h was determined as 19%.

As for `O=C(CCc1cc(Cl)no1)N1CCN(CCn2cncn2)CC1`, the cytotoxicity at 70.5 h is -0.942%.

Consider `CC(NC(=O)C1CC1)c1cc(O)nc(-c2cccnc2)n1` (centres undefined), for which the cytotoxicity at 70.5 h amounted to 26.9%.

Values taken from ChEMBL document CHEMBL3507680, “University of Dundee, Gates Library screen for HepG2 cell viability”.
